Data from US8143257B2, “Substituted phenols as active agents inhibiting VEGF production” (PTC Therapeutics, Inc., priority 2004, dated 2012).
pEC50: −log10 of the molar value. Like-named read-outs stand apart in the source and are kept apart here.

Test system: hypoxia-inducible endogenous VEGF expression
Test: Assay to evaluate effect on hypoxia-inducible endogenous VEGF expression (VEGF ELISA, HeLa cells)
Assay type: cell-based
Details: read-out: ELISA EC50 (effective concentration required to lower the amount of VEGF translation by 50%)
Description: Assay to Evaluate Effect on Hypoxia-Inducible Endogenous VEGF Expression
The ability of the compounds of the invention to modulate hypoxia-inducible endogenous VEGF expression is analyzed as follows. VEGF protein levels are monitored by an ELISA assay (R&D Systems). Briefly, HeLa cells are cultured for 24-48 hours under hypoxic conditions (1% O2, 5% CO2, balanced with nitrogen) in the presence or absence of a compound of the invention. The conditioned media is then assayed by ELISA, and the concentration of VEGF is calculated from the standard ELISA curve of each assay.
A dose-response analysis is performed using the ELISA assay and conditions described above. A series of, e.g., seven different concentrations are analyzed. In parallel, a dose-response cytotoxicity assay is performed using Cell Titer Glo (Promega) under the same conditions as the ELISA to ensure that the inhibition of VEGF expression is not due to the cytotoxicity. Dose-response curves are plotted using percentage inhibition versus concentration of the compound, and EC50 and CC50 values are generated for each compound with the maximal inhibition set as 100% and the minimal inhibition as 0%.
The most preferred compounds of the invention are those with μM values of 3 or less.

[1] = Homo sapiens, HeLa cells cultured 24-48 hours under hypoxic conditions (1% O2, 5% CO2), VEGF in conditioned media by ELISA
[2] = HeLa cells cultured 24-48 hours under hypoxic conditions (1% O2, 5% CO2), VEGF in conditioned media by ELISA

SMILES	pEC50 [1]	further results
O=C(Oc1ccc2ccccc2c1Br)N1CCC2(CC1)OCCO2 [1,4-Dioxa-8-aza-spiro[4.5]decane-8-carboxylic acid 1-bromo-naphthalen-2-yl ester]	5.82	
O=C(Oc1cc(Cl)c(Cl)cc1Cl)N1CCc2ccccc21 [2,3-Dihydro-indole-1-carboxylic acid 2,4,5-trichloro-phenyl ester]	< 4.52	
O=C(Oc1c(Cl)cc(Cl)cc1Cl)N1CCc2ccccc21 [2,3-Dihydro-indole-1-carboxylic acid 2,4,6-trichloro-phenyl ester]	< 4.52	
Cc1ccc(OC(=O)N2CCc3ccccc32)c(Br)c1 [2,3-Dihydro-indole-1-carboxylic acid 2-bromo-4-methyl-phenyl ester]		pEC50 (Homo sapiens, HeLa): < 4.52
O=C(Oc1ccccc1Br)N1CCc2ccccc21 [2,3-Dihydro-indole-1-carboxylic acid 2-bromo-phenyl ester]		pEC50 [2]: < 4.52
Cc1ccc2cc(OC(=O)N3CCc4ccccc43)ccc2n1 [2,3-Dihydro-indole-1-carboxylic acid 2-methyl-quinolin-6-yl ester]	< 4.52	
O=C(Oc1cc2ccccc2cn1)N1CCc2ccccc21 [2,3-Dihydro-indole-1-carboxylic acid isoquinolin-3-yl ester]	< 4.52	
CC(=O)c1c(OC(=O)N2CCc3cccnc32)ccc2ccccc12 [2,3-Dihydro-pyrrolo[2,3-b]pyridine-1-carboxylic acid 1-acetyl-naphthalen-2-yl ester]	< 4.52	
O=C(Oc1ccccc1Br)N1CCc2cccnc21 [2,3-Dihydro-pyrrolo[2,3-b]pyridine-1-carboxylic acid 2-bromo-phenyl ester]	< 4.52	
CC1CCCC(C)N1C(=O)Oc1c(Cl)cc(Cl)cc1Cl (centres unmarked) [2,6-Dimethyl-piperidine-1-carboxylic acid 2,4,6-trichloro-phenyl ester]	< 4.52	
Cc1ccc(OC(=O)N2C(C)CCCC2C)c(Br)c1 (centres unmarked) [2,6-Dimethyl-piperidine-1-carboxylic acid 2-bromo-4-methyl-phenyl ester]		pEC50 [2]: < 4.52
CC1CCCC(C)N1C(=O)Oc1ccccc1Br (centres unmarked) [2,6-Dimethyl-piperidine-1-carboxylic acid 2-bromo-phenyl ester]		pEC50 [2]: < 4.52
CC1CCCC(C)N1C(=O)Oc1cc2ccccc2cn1 (centres unmarked) [2,6-Dimethyl-piperidine-1-carboxylic acid isoquinolin-3-yl ester]	< 4.52	
CC(=O)c1c(OC(=O)N2CCCCC2C)ccc2ccccc12 (centres unmarked) [2-Methyl-piperidine-1-carboxylic acid 1-acetyl-naphthalen-2-yl ester]	< 4.52	
CC1CCCCN1C(=O)Oc1ccc2ccccc2c1Br (centres unmarked) [2-Methyl-piperidine-1-carboxylic acid 1-bromo-naphthalen-2-yl ester]	6.16	
CC1CCCCN1C(=O)Oc1cc(Cl)c(Cl)cc1Cl (centres unmarked) [2-Methyl-piperidine-1-carboxylic acid 2,4,5-trichloro-phenyl ester]	4.98	
CC1CCCCN1C(=O)Oc1c(Cl)cc(Cl)cc1Cl (centres unmarked) [2-Methyl-piperidine-1-carboxylic acid 2,4,6-trichloro-phenyl ester]	< 4.52	
Cc1ccc(OC(=O)N2CCCCC2C)c(Br)c1 (centres unmarked) [2-Methyl-piperidine-1-carboxylic acid 2-bromo-4-methyl-phenyl ester]		pEC50 [2]: < 4.52
CC1CCCCN1C(=O)Oc1ccccc1Br (centres unmarked) [2-Methyl-piperidine-1-carboxylic acid 2-bromo-phenyl ester]		pEC50 (Homo sapiens, HeLa): < 4.52
Cc1ccc2cc(OC(=O)N3CCCCC3C)ccc2n1 (centres unmarked) [2-Methyl-piperidine-1-carboxylic acid 2-methyl-quinolin-6-yl ester]		pEC50 (Homo sapiens, HeLa): < 4.52
CC1CCCCN1C(=O)Oc1cc2ccccc2cn1 (centres unmarked) [2-Methyl-piperidine-1-carboxylic acid isoquinolin-3-yl ester]	< 4.52	
O=C(Oc1ccc2ccccc2c1Br)N1CCc2ccccc2C1 [3,4-Dihydro-1H-isoquinoline-2-carboxylic acid 1-bromo-naphthalen-2-yl ester]	6.76	
O=C(Oc1cc(Cl)c(Cl)cc1Cl)N1CCc2ccccc2C1 [3,4-Dihydro-1H-isoquinoline-2-carboxylic acid 2,4,5-trichloro-phenyl ester]	4.73	
O=C(Oc1c(Cl)cc(Cl)cc1Cl)N1CCc2ccccc2C1 [3,4-Dihydro-1H-isoquinoline-2-carboxylic acid 2,4,6-trichloro-phenyl ester]	< 4.52	

SMILES	pEC50 [1]	further results
Cc1ccc2cc(OC(=O)N3CCc4ccccc4C3)ccc2n1 [3,4-Dihydro-1H-isoquinoline-2-carboxylic acid 2-methyl-quinolin-6-yl ester]	< 4.52	
O=C(Oc1cc2ccccc2cn1)N1CCc2ccccc2C1 [3,4-Dihydro-1H-isoquinoline-2-carboxylic acid isoquinolin-3-yl ester]	< 4.52	
O=C(Oc1cc(Cl)c(Cl)cc1Cl)N1CCCc2ccccc21 [3,4-Dihydro-2H-quinoline-1-carboxylic acid 2,4,5-trichloro-phenyl ester]	4.95	
O=C(Oc1c(Cl)cc(Cl)cc1Cl)N1CCCc2ccccc21 [3,4-Dihydro-2H-quinoline-1-carboxylic acid 2,4,6-trichloro-phenyl ester]	< 4.52	
Cc1ccc2cc(OC(=O)N3CCCc4ccccc43)ccc2n1 [3,4-Dihydro-2H-quinoline-1-carboxylic acid 2-methyl-quinolin-6-yl ester]	< 4.52	
O=C(Oc1cc2ccccc2cn1)N1CCCc2ccccc21 [3,4-Dihydro-2H-quinoline-1-carboxylic acid isoquinolin-3-yl ester]	< 4.52	
CC(=O)c1c(OC(=O)N2CC(C)CC(C)C2)ccc2ccccc12 (centres unmarked) [3,5-Dimethyl-piperidine-1-carboxylic acid 1-acetyl-naphthalen-2-yl ester]	6.12	
CC1CC(C)CN(C(=O)Oc2ccc3ccccc3c2Br)C1 (centres unmarked) [3,5-Dimethyl-piperidine-1-carboxylic acid 1-bromo-naphthalen-2-yl ester]	6.89	
CC1CC(C)CN(C(=O)Oc2ccc3ccccc3c2NS(C)(=O)=O)C1 (centres unmarked) [3,5-Dimethyl-piperidine-1-carboxylic acid 1-methanesulfonylamino-naphthalen-2-yl ester]	< 5.30	
CC1CC(C)CN(C(=O)Oc2cc(Cl)c(Cl)cc2Cl)C1 (centres unmarked) [3,5-Dimethyl-piperidine-1-carboxylic acid 2,4,5-trichloro-phenyl ester]	4.95	
CC1CC(C)CN(C(=O)Oc2c(Cl)cc(Cl)cc2Cl)C1 (centres unmarked) [3,5-Dimethyl-piperidine-1-carboxylic acid 2,4,6-trichloro-phenyl ester]	< 4.52	
Cc1ccc(OC(=O)N2CC(C)CC(C)C2)c(Br)c1 (centres unmarked) [3,5-Dimethyl-piperidine-1-carboxylic acid 2-bromo-4-methyl-phenyl ester]	< 4.52	
CC1CC(C)CN(C(=O)Oc2ccccc2Br)C1 (centres unmarked) [3,5-Dimethyl-piperidine-1-carboxylic acid 2-bromo-phenyl ester]		pEC50 [2]: < 4.52
Cc1ccc2cc(OC(=O)N3CC(C)CC(C)C3)ccc2n1 (centres unmarked) [3,5-Dimethyl-piperidine-1-carboxylic acid 2-methyl-quinolin-6-yl ester]		pEC50 [2]: < 4.52
CC1CC(C)CN(C(=O)Oc2ncc3ccccc3c2Cl)C1 (centres unmarked) [3,5-Dimethyl-piperidine-1-carboxylic acid 4-chloro-isoquinolin-3-yl ester]	< 5.00	
CC1CC(C)CN(C(=O)Nc2ccc3ccccc3c2Br)C1 (centres unmarked) [3,5-Dimethyl-piperidine-1-carboxylic acid (1-bromo-naphthalen-2-yl)-amide]	< 5.00	
CC1CC(C)CN(C(=O)Nc2ccc3ccccc3c2Cl)C1 (centres unmarked) [3,5-Dimethyl-piperidine-1-carboxylic acid (1-chloro-naphthalen-2-yl)-amide]	< 5.00	
CC1CC(C)CN(C(=O)Oc2cc3ccccc3cn2)C1 (centres unmarked) [3,5-Dimethyl-piperidine-1-carboxylic acid isoquinolin-3-yl ester]		pEC50 (Homo sapiens, HeLa): < 4.52
CC1CC(C)CN(C(=O)Nc2ccc3ccccc3c2)C1 (centres unmarked) [3,5-Dimethyl-piperidine-1-carboxylic acid naphthalen-2-ylamide]	< 5.00	
COc1ccc2ccc(OC(=O)N3CCN(c4ccc(Cl)cc4)CC3)c(Br)c2c1 [4-(4-Chloro-phenyl)-piperazine-1-carboxylic acid 1-bromo-7-methoxy-naphthalen-2-yl ester]	< 5.00	
O=C(Nc1ccc2ccccc2c1Cl)N1CCN(c2ccc(Cl)cc2)CC1 [4-(4-Chloro-phenyl)-piperazine-1-carboxylic acid (1-chloro-naphthalen-2-yl)-amide]	< 5.00	
COc1ccc2ccc(OC(=O)N3CCC(C(O)(c4ccccc4)c4ccccc4)CC3)c(Br)c2c1 [4-(Hydroxy-diphenyl-methyl)-piperidine-1-carboxylic acid 1-bromo-7-methoxy-naphthalen-2-yl ester]	< 5.00	
O=C(Oc1ccc2ccccc2c1Br)N1CCC(C(O)(c2ccccc2)c2ccccc2)CC1 [4-(Hydroxy-diphenyl-methyl)-piperidine-1-carboxylic acid 1-bromo-naphthalen-2-yl ester]	7.70	
